Values joined by “and” are separate entries in the source; they are usually repeats but may differ in a detail not shown here. Equal values may be shown once. “Also recorded” adds a separate entry of the source. Read-outs that look alike come from different tables or passages of the source.
What was measured:
[1] = system: DAMP-induced TNF secretion (CIRP, SAA, PEDF, HSP 70, HSP90, H2A), human primary macrophages; assay: DAMPs-induced TNF secretion in human macrophages; type: cell-based; details: 16 hours
rats = assay: Single-dose tolerability in rats; type: in vivo; details: single-dose studies with rats
[2] = system: APAP-induced liver injury; assay: APAP-induced liver injury model in mice; type: in vivo, male C57BL/6 mice
[3] = system: liver ischemia and reperfusion injury; assay: Warm liver ischemia and reperfusion (I/R) in mice; type: in vivo, male C57BL/6 mice
[4] = system: CCI-induced neuropathic pain; assay: Chronic constriction injury (CCI) of the sciatic nerve neuropathic pain model in rats; type: in vivo, male Wistar rats
Procedure: Twenty-four male Wistar rats were separated into four groups (n=6/group) for treatment as follows [please give details concerning each of the four groups regarding procedure and treatment:
The CCI rats each received surgery. […] Mechanical and thermal sensitivity tests were also performed over time. Hargreaves Thermal Hypersensitivity test was administered to the rats as well as Von Frey mechanical hypersensitivity test.
Rats (male Wistar, 150-180 gm, n=6/group) had CCI surgery. […] Two weeks after surgery, thermal (Hargreaves) or mechanical (von Frey) hypersensitivity was assessed. *: P<0.05 vs. PBS group.
In this experiment, male Wistar rats (n=6/group) had CCI surgery. […] Mechanical allodynia was assessed 5 hours later. N=6-8 rats/group. *: p<0.05) vs. HMGB1 alone. Mechanical and thermal sensitivity tests were also performed over time.

STZ-induced diabetes = STZ-induced diabetes in mice; type: in vivo; details: repetitive K883 500 μg/mouse, vs PBS
Procedure: Mice were administered repetitive administration of […] (500 μg/mouse). […] Repetitive administration of […] was therefore shown to be beneficial in STZ-induced diabetes. […] (*: P<0.05 vs. PBS group. N=6-8 mice per group).

[5] = up to 6 hours, versus P5779
[6] = Pharmacokinetics after intravenous administration to rats (LC-MS)
[7] = rat, in vivo
[8] = system: HMGB1-induced TNF release, human primary macrophages; details: Yang 2015; cited from earlier work
[9] = system: PAMP-induced TNF release (LPS, PGN, AGE, Poly I:C), human macrophages; details: Yang 2015; cited from earlier work
[10] = system: APAP-induced liver injury; details: cited from earlier work
[11] = system: liver ischemia and reperfusion injury; details: cited from earlier work

## NC(=O)N(CCC(=O)O)NC(=O)[C@H](CO)NC(=O)[C@H](CO)NC(=O)N(N)Cc1ccccc1 [K883]
[1]
  TNF secretion induced by other DAMPs: is not inhibited
rats
  tolerability: well-tolerated
[2]; 50 ug/mouse, vs vehicle controls
  serum ALT: reduced serum ALT
[2]; APAP 350 mg/kg IP, K883 50 μg/mouse IP at 2 and 7 hours post-APAP, 24 hours
  liver necrosis / liver injury (H&E histology): reduces APAP-induced liver injury; also recorded: reduced liver necrosis
[2]; APAP 400 mg/kg, 50 μg/mouse IP once-a-day for 5 days from 2 hours post-APAP, 2 weeks, control group 8
  mice surviving the toxicity of APAP: 14 mice out of 15
[2]; APAP 400 mg/kg, K883 50 μg/mouse IP once-a-day 5 days, 2 weeks
  percent survival post-APAP: improved survival outcome; also recorded: significant improvement
[3]; K883, 6 hours after reperfusion, vs vehicle control
  liver H&E staining: inflammation (neutrophil infiltration): reduced inflammation
[3]; mice
  protection against hepatic ischemia/reperfusion injury: protected mice against hepatic ischemia/reperfusion injury
[4]; DRGs
  CCI-induced CXCL1 and TNF expression (DRGs): reduces CCI-induced CXCL1 and TNF expression
[4]; Hargreaves / von Frey, K883 800 μg/rat IP once a day for 3 days
  CCI-induced thermal and/or mechanical hypersensitivity (neuropathy): improved CCI-induced thermal and mechanical hypersensitivity; also recorded: effectively reduces peripheral neuropathy; also recorded: ameliorated both mechanical and thermal hypersensitivity; also recorded: ameliorated the thermal hypersensitivity
[4]; spine
  CCI-induced CXCL1, TNF and IL-1β expression (spine): reduces CCI-induced CXCL1, TNF and IL-1β expression
STZ-induced diabetes
  hyperglycemia: delays hyperglycemia
  insulitis: reduces insulitis
  weight gain: improves weight gain
[5]
  structural stability in mouse serum: retains structural stability for a longer period of time
[6]; IV 1 mg/kg, individual rats, 1 mg/kg
  AUCss: 3776 ng·h/mL and 3808 ng·h/mL and 3751 ng·h/mL
[6]; IV 1 mg/kg, mean of 3 rats
  AUCss, Mean: 3778 ng·h/mL
[6]; rat, in vivo
  half-life in serum (FIG. 23): longer half-life in serum

## NC(=O)[C@H](CCC(=O)O)NC(=O)[C@H](CO)NC(=O)[C@H](CO)NC(=O)[C@@H](N)Cc1ccccc1 [P5779]
[7]
  half-life in serum (FIG. 23): undetectable
[8]
  HMGB1-induced TNF release from macrophages: inhibit HMGB1-induced TNF release from macrophages in a concentration-dependent manner
[9]
  TNF release in macrophages stimulated by LPS, PGN, Poly I:C, CpG DNA or S100 A12: not suppress TNF release
[10]; APAP 350 mg/kg, P5779 50 or 500 μg/mouse IP at 2 and 7 hours, vs scrambled control peptide
  liver necrosis / liver injury (H&E histology): reduced APAP-mediated liver injury; also recorded: reduced liver necrosis
[10]; APAP 400 mg/kg, P5779 500 μg/mouse IP once a day 5 days, 2 weeks, vs scrambled control peptide
  percent survival post-APAP: increased survival; also recorded: significantly improved
[10]; P5779 500 ugs/mouse, comparative data
  serum ALT: significant reductions in ALT
[11]; P5779 500 μg/mouse IP at time of I/R surgery, 6 hours
  serum levels of ALT and AST / tissue damage: reduced
[11]; P5779, 6 hours after reperfusion, vs vehicle
  liver H&E staining: inflammation (neutrophil infiltration): reduced inflammation

From patent publication US11524048B2, “HMGB1 antagonist treatment of severe sepsis” (THE FEINSTEIN INSTITUTES FOR MEDICAL RESEARCH, priority 2019, dated 2022)
